Experimental data from PubChem BioAssay AID248 (DTP/NCI, 2004).
Inconclusive results and toxic doses are left out. No stated cut-off is given here; in the data, active means T/C of 150% or more; inactive means T/C below 125%.

Test system: L1210 leukemia ip in BDF1 mice, survival T/C
Assay: NCI In Vivo Anticancer Drug Screen. Data for tumor model L1210 Leukemia (intraperitoneal) in B6D2F1 (BDF1) mice
Conditions: endpoint: mean survival time, higher = longer survival
Procedure, shortened: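 Each compound was tested against a transplantable tumor grown in mice. The endpoint was survival, with treated animals benchmarked against vehicle controls as a simple ratio.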

[1] = dose: 100.0 mg/kg/injection, schedule: Q01DX009 (ip), vehicle: Klucel (hydroxypropylcellulose) (HPC)
[2] = dose: 200.0 mg/kg/injection, schedule: Q01DX009 (ip), vehicle: Klucel (hydroxypropylcellulose) (HPC)
[3] = dose: 400.0 mg/kg/injection, schedule: Q01DX009 (ip), vehicle: Klucel (hydroxypropylcellulose) (HPC)
[4] = dose: 100.0 mg/kg/injection, schedule: Q01DX001 (ip), vehicle: saline
[5] = dose: 200.0 mg/kg/injection, schedule: Q01DX001 (ip), vehicle: saline
[6] = dose: 400.0 mg/kg/injection, schedule: Q01DX001 (ip), vehicle: saline
[7] = dose: 100.0 mg/kg/injection, schedule: Q01DX009 (ip), vehicle: saline with Tween-80
[8] = dose: 100.0 mg/kg/injection, schedule: Q04DX003 (ip), vehicle: saline with Tween-80
[9] = dose: 200.0 mg/kg/injection, schedule: Q01DX009 (ip), vehicle: saline with Tween-80
[10] = dose: 400.0 mg/kg/injection, schedule: Q01DX009 (ip), vehicle: saline with Tween-80

Measured: T/C

C(=N\Nc1nc2ccccc2s1)/c1ccncc1
inactive: [1] 106 % of control | [2] 96 % of control | [3] 98 % of control

c1ccc(CNCCNCc2ccccn2)nc1
inactive: dose: 1.25 mg/kg/injection, schedule: Q04DX002 (ip), vehicle: saline 106 % of control | dose: 2.5 mg/kg/injection, schedule: Q04DX002 (ip), vehicle: saline 113 % of control | dose: 5.0 mg/kg/injection, schedule: Q04DX002 (ip), vehicle: saline 106 % of control | dose: 10.0 mg/kg/injection, schedule: Q04DX002 (ip), vehicle: saline 102 % of control

CC1(C)CCC(C)(C)C2CC3CC4C(CC3CC21)C(C)(C)CCC4(C)C (centres undefined)
inactive: [4] 89 % of control | [5] 104 % of control | [6] 97 % of control

c1ccc2c(c1)ccc1oc3ccccc3c12
inactive: [4] 101 % of control | [5] 95 % of control | [6] 98 % of control

O=[N+]([O-])c1cccc(C(O)CC(O)(C(F)(F)F)C(F)(F)F)c1 (centres undefined)
inactive: [7] 98 % of control | [8] 95 % of control | [9] 101 % of control | dose: 200.0 mg/kg/injection, schedule: Q04DX003 (ip), vehicle: saline with Tween-80 97 % of control | [10] 95 % of control | dose: 400.0 mg/kg/injection, schedule: Q04DX003 (ip), vehicle: saline with Tween-80 103 % of control

CN(C)CC/C=C1\c2ccccc2CN(C)c2ccccc21
inactive: dose: 6.25 mg/kg/injection, schedule: Q01DX009 (ip), vehicle: saline with Tween-80 94 % of control | dose: 6.25 mg/kg/injection, schedule: Q01DX009 (ip), vehicle: saline 108 % of control | dose: 12.5 mg/kg/injection, schedule: Q01DX009 (ip), vehicle: saline with Tween-80 104 % of control | dose: 12.5 mg/kg/injection, schedule: Q01DX009 (ip), vehicle: saline 107 % of control | dose: 25.0 mg/kg/injection, schedule: Q01DX009 (ip), vehicle: saline with Tween-80 88 % of control | dose: 25.0 mg/kg/injection, schedule: Q01DX009 (ip), vehicle: saline 94 % of control | dose: 25.0 mg/kg/injection, schedule: Q04DX003 (ip), vehicle: saline with Tween-80 88 % of control | dose: 25.0 mg/kg/injection, schedule: Q04DX003 (ip), vehicle: saline 97 % of control | dose: 50.0 mg/kg/injection, schedule: Q01DX009 (ip), vehicle: saline 94 % of control | dose: 50.0 mg/kg/injection, schedule: Q04DX003 (ip), vehicle: saline with Tween-80 96 % of control | dose: 50.0 mg/kg/injection, schedule: Q04DX003 (ip), vehicle: saline 97 % of control | dose: 100.0 mg/kg/injection, schedule: Q01DX009 (ip), vehicle: saline 105 % of control | [8] 94 % of control | dose: 100.0 mg/kg/injection, schedule: Q04DX003 (ip), vehicle: saline 101 % of control

COC(=O)C(C)=O
inactive: [7] 103 % of control | [9] 101 % of control | [10] 98 % of control

Oc1c(Br)cc(Br)cc1/C=N/c1nc(-c2ccccc2)cs1.Oc1c(Br)cc(Br)cc1/C=N/c1nc(-c2ccccc2)cs1.[Co]
inactive: [4] 93 % of control | [6] 86 % of control

O=c1[nH]c(=O)c2nc3ccccc3nc2[nH]1
inactive: [1] 100 % of control | [2] 94 % of control | [3] 93 % of control

CCOC(=O)c1cnc(C(Cl)(Cl)Cl)[nH]c1=O
inactive: dose: 100.0 mg/kg/injection, schedule: Q01DX001 (ip), vehicle: Klucel (hydroxypropylcellulose) (HPC) 94 % of control | dose: 200.0 mg/kg/injection, schedule: Q01DX001 (ip), vehicle: Klucel (hydroxypropylcellulose) (HPC) 99 % of control | dose: 400.0 mg/kg/injection, schedule: Q01DX001 (ip), vehicle: Klucel (hydroxypropylcellulose) (HPC) 92 % of control

CCOC(=O)c1ccc(OC(=O)Nc2ccc(Cl)c([N+](=O)[O-])c2)cc1
inactive: dose: 50.0 mg/kg/injection, schedule: Q01DX009 (ip), vehicle: Klucel (hydroxypropylcellulose) (HPC) 94 % of control | [1] 90 % of control | dose: 100.0 mg/kg/injection, schedule: Q04DX003 (ip), vehicle: Klucel (hydroxypropylcellulose) (HPC) 100 % of control | [2] 92 % of control | dose: 200.0 mg/kg/injection, schedule: Q04DX003 (ip), vehicle: Klucel (hydroxypropylcellulose) (HPC) 94 % of control
